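Growth conditions: 96-well plates. Treatment: test compound, 48 hours, 5 concentrations. Analysis: linear interpolation between bracketing concentrations; unreached endpoints set to highest concentration. The concentration for 50% growth inhibition is given as GI50. TGI: total growth inhibition.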
Assays:
Test in all cases: inhibition of tumour cell growth, NCI panel, 48 h
MDA-MB-231 breast = test system: MDA-MB-231 breast
MCF7 breast = test system: MCF7 breast
UACC-257 melanoma = test system: UACC-257 melanoma
EKVX NSCLC = test system: EKVX NSCLC
SK-OV-3 ovarian = test system: SK-OV-3 ovarian
CCRF-CEM leukemia = test system: CCRF-CEM leukemia
COLO 205 colon = test system: COLO 205 colon

Structure (SMILES) | TGI (MDA-MB-231 breast) | TGI (MCF7 breast) | TGI (UACC-257 melanoma) | TGI (EKVX NSCLC) | TGI (SK-OV-3 ovarian) | TGI (CCRF-CEM leukemia) | TGI (COLO 205 colon) | GI50 (MDA-MB-231 breast) | GI50 (MCF7 breast) | GI50 (UACC-257 melanoma) | GI50 (CCRF-CEM leukemia)
CCOC(=O)CCNC(=O)c1cc(C)cc2c1Oc1c(cc(C)cc1C(=O)NCCC(=O)OCC)S2 | > 100 µM | > 100 µM | > 100 µM | > 100 µM | > 100 µM | > 100 µM | > 100 µM |  |  |  | 
ClC1(Cl)C2CCOC21n1cnc2ccccc21 (configuration not stated) | > 100 µM | > 100 µM |  | > 100 µM | > 100 µM | > 100 µM | > 100 µM |  |  |  | 
O=C1CSC2(CC(/C=C/c3ccccc3[N+](=O)[O-])=NN2c2cccc(S(=O)(=O)O)c2)N1c1nc2ccccc2s1 (configuration not stated) | 32 µM | 26.4 µM | > 75 µM | > 75 µM |  | 43.5 µM | > 75 µM |  |  |  | 
CC1=NN(c2cccc(S(=O)(=O)O)c2)C2(C1)SCC(=O)N2c1nc2ccccc2s1 (configuration not stated) | > 100 µM | > 100 µM | > 100 µM | > 100 µM | > 100 µM |  | > 100 µM |  |  |  | 
C=C(C)[C@H]1C=C[C@@H](OC(C)=O)[C@@]2(COC(C)=O)[C@H](OC(=O)CCC)[C@H]3[C@@H](OC(C)=O)[C@@H](C)C[C@]3(O)C(=O)[C@@](C)(OC(C)=O)[C@H]12 | > 100 µM | > 100 µM | > 100 µM | > 100 µM |  | > 100 µM | 65 µM |  |  |  | 
COc1ccc(C2=Nn3c(C)nnc3S/C2=C\c2ccc(-c3ccc([N+](=O)[O-])cc3)o2)cc1 | > 100 µM | 88.7 µM | 54.7 µM | 82.9 µM | > 100 µM | > 100 µM |  |  |  |  | 
C[C@H](OC(=O)/C=C/c1ccc(O)c(O)c1)[C@H](C)OC(=O)/C=C/c1ccc(O)c(O)c1 | 35.9 µM | 70.7 µM | 29.7 µM | 33 µM | 32.3 µM |  | 50.3 µM |  |  |  | 
NC(=O)NC(=O)c1cccc(C(=O)NC(N)=O)n1 | > 100 µM | > 100 µM | > 100 µM | > 100 µM | > 100 µM | > 100 µM |  |  |  |  | 
CCN(CC)C(=O)N1CN(c2ccccc2)C2(CCN(CCCC3(c4ccc(F)cc4)OCCO3)CC2)C1=O |  | 19.9 µM | 26.3 µM | 90.2 µM | 61.5 µM | 45.9 µM | 15.2 µM |  |  |  | 
Cc1cn(C2CC(/[N+]([O-])=N\Nc3ccc([N+](=O)[O-])cc3)C(CO)O2)c(=O)[nH]c1=O (configuration not stated) | > 100 µM |  | > 100 µM | > 100 µM | > 100 µM | > 100 µM | > 100 µM |  |  |  | 
Cc1c(OCc2cccc3ccccc23)ccc2c(=O)cc(S)oc12 | > 100 µM | > 100 µM | > 100 µM | > 100 µM |  | 54.1 µM | > 100 µM |  |  |  | 
O=c1ccc2c(Cl)sc(Cl)c2[nH]1 | > 100 µM | > 100 µM | > 100 µM | > 100 µM | > 100 µM | > 100 µM |  |  |  |  | 
COc1ccc2oc(=O)c(-c3nc4ccccc4s3)cc2c1 | 53.2 µM |  | > 100 µM | > 65 µM | 36.5 µM | > 75.6 µM | > 100 µM |  |  |  | 
COC(=O)c1cc(OCc2cc(OCc3ccc(Br)cc3)cc(OCc3ccc(Br)cc3)c2)cc(OCc2cc(OCc3ccc(Br)cc3)cc(OCc3ccc(Br)cc3)c2)c1 | > 100 µM | > 100 µM | > 100 µM | > 100 µM | > 100 µM |  | > 100 µM |  |  |  | 
O=C(O)Cc1ccc(-n2nnc3c(=O)[nH][nH]c(=O)c32)cc1 | > 100 µM | > 100 µM | > 100 µM | > 100 µM |  | > 100 µM | > 100 µM |  |  |  | 
COc1cc(/C=C2\CCCC3=C2N=C2SC=NN2C3c2cc(OC)c(OC)c(OC)c2)cc(OC)c1OC (configuration not stated) | > 100 µM | > 100 µM | 26.1 µM |  |  | > 100 µM |  | 4.95 µM | 3.82 µM | 2.64 µM | 3.17 µM
c1ccc2c(CCNC3=NCCO3)cccc2c1 | > 10 µM | > 10 µM |  | > 10 µM | > 10 µM | > 10 µM | > 10 µM |  |  |  | 
Cc1ccc(S(=O)(=O)N/N=C2/C3CC4CCC2C4C3)cc1 (configuration not stated) | > 100 µM | > 100 µM | > 100 µM | > 100 µM | > 100 µM |  | > 100 µM |  |  |  | 
COc1ccc(C(CC(=O)c2ccc(O)cc2)C(C(=O)c2ccc(O)cc2)C(c2ccc(OC)cc2)C2C(=O)NC(=S)NC2=O)cc1 (configuration not stated) | 55.9 µM | 33.2 µM | 41 µM |  |  | 36 µM | 45.1 µM |  |  |  | 
COc1ccc([C@H]2C=C(c3cc(F)c(Cl)cc3Cl)N=c3s/c(=C\c4ccc(-c5ccc(Cl)cc5Cl)o4)c(=O)n32)cc1 | 70.2 µM | > 100 µM | > 100 µM |  | 65.2 µM |  | > 100 µM |  |  |  | 
O=CC1C(=O)Nc2nc3ccccc3n2C1c1ccccc1 (configuration not stated) | 44.3 µM | 27.4 µM | 33.3 µM | 82 µM |  | 75.2 µM | 26.2 µM |  |  |  | 

From PubChem BioAssay (NCI)
